Entries after “also recorded” stand apart in the source; their conditions may differ.
How the values were obtained:
Sprague-Dawley rats [1] = assay: Von Frey mechanical nociceptive sensitivity threshold in healthy animals not treated with vincristine; format: in vivo, rat; conditions: 4 mg/kg every 2 days for 2 weeks
Excerpt: (§1) Adult male Sprague-Dawley rats weighing between 250 and 300 g were used. They came from the company Janvier (le Genest St. Isle, France). The care and handling of the animals were done in accordance with the guidelines from the Council of the European Community (86/609/EC) and in accordance with the ethical rules of the International Association for the Study of Pain. The protocol used to carry out the in vivo studies was subject to examination and authorization granted to Prof. Mensah-Nyagan's team by the Alsatian Department of the Veterinary Public Health Guide for the Care and Use of Laboratory Animals (Approval number 67-186). The rats were housed under standard conditions with a photoperiod of 12 h day/12 h night, with unlimited food and water. The animals spent one acclimatization week before being integrated into the experimental protocols. Each animal was examined daily to detect any signs of deterioration of its health condition, such as dramatic weight loss, a decrease in appetite during chemotherapy and pharmacological treatment.
(§2) The allopregnanolone in the derivatives according to the invention (BR053 and BR297) were diluted in a hydroxypropylcellulose (HPC) solution (0.3%) used as excipient. The curative treatment with allopregnanolone, BR053 or BR297 began 3 days after the vincristine cycles. Each of these compounds (allopregnanolone, BR053 or BR297) was administered by the intraperitoneal route at a dose of 4 mg/kg at a rate of one injection every 2 days. Thus, over the total duration of the in vivo experiments (14 days), each animal received 7 injections of excipient, allopregnanolone, BR053 or BR297, based on its group, at a dose of 4 mg/kg. The animals were sacrificed 24 hours after the last behavioral test (28th day) to remove tissues that will be used for later histology and electrophysiology studies.
The mechanical nociceptive sensitivity threshold was evaluated in rats placed in individual Plexiglas boxes (30×30×25 cm) mounted on a raised mesh support thereby allowing access to the surface or arch of the back feet. The presence of allodynia (exaggerated response following a normally […] stimulation) was measured using a series of calibrated von Frey filaments (1, 2, 4, 6, 8, 10, 15, 26, 100, 180 and 300 g; Stoelting, Wood Dale, Ill., USA), which were applied on the sole of the back foot of the animal with increasing force until the filament twisted. The filament was applied for a period of 1 to 2 seconds and the procedure was repeated 5 times at 4-5 second intervals. The withdrawal threshold of the foot was calculated by taking the average of 10 repeated stimuli (in grams) that caused a reflex to withdraw the foot. Only vigorous and fast withdrawals of the foot were considered positive. […]

[2] = tested on: type A GABA channel receptors (GABAa-R); assay: Whole-cell patch-clamp, effect on GABA-induced ionic current; format: cell-based, human; conditions: 0.25 μM compound, GABA 10 μM in the recording pipette, whole cell patch-clamp
Experimental: The studies were conducted using an electrophysiological approach. The activity of the cells was recorded using the patch-clamp technique in its so-called whole cell configuration. The mediums used for the recordings have the following composition (in mM): NaCl ([…]), KCl (2), CaCl2 (1), MgCl2 (2), HEPES (10) for the medium bathing the cells and NaCl (132), KCl (2), CaCl2 (1), MgCl2 (2), TEA (15), HEPES (10) for the recording pipette, the pH was adjusted in both cases to 7.4 with NaOH. The GABA 10 μM was added into the recording pipette.
After producing a “gigaseal” (Planar patch clamp) between the cellular membrane and the tip of a pipette with an electrical resistance comprised between 4 and 7 MO, the ionic currents were measured using a patch-clamp amplifier (Axopatch B200, Axon Instruments, CA). The acquisition of the signal (acquisition frequency of 10 kHz) was done using an interface card (Digidata 1322A, Axon Instruments, CA) and the pClamp 8 software (Axons Instruments, CA).
The allopregnanolone and the BR053, BR338, BR297 and BR351 derivatives were solubilized in pure ethanol before being diluted in the medium to the desired concentration. The dilution factor was at least equal to 2×10^4, which makes the final concentration of ethanol in the recording solution remain below […] (a concentration not affecting the activity of the GABAa receptor).
Depending on the experiments, the allopregnanolone or the BR053, BR338, BR297 or BR351 derivatives, at the concentration of 0.25 μM, were either added in the recording pipette at the same time as the GABA, or applied to the cell by perfusion.
The application was done by gravity through a multi-path perfusion system made up of glass tubes each having an inner diameter of 1 mm. The selected path was placed across from the recorded cell at approximately 100 μm. The solution was changed by calibrated rotation of the tubes using a stepping motor thus placing the new selected path across from the cell. Synchronously with that rotation, the solenoid valve controlling the flow of the selected path was also opened and the preceding one closed.

Sprague-Dawley rats [3] = assay: Acetone test of thermal allodynia to cold, painful neuropathy caused by vincristine; format: in vivo, rat; conditions: rats with vincristine neuropathy, 4 mg/kg i.p. every 2 days for 2 weeks
Excerpt: as §1
Vincristine sulfate (VINC), purchased from Sigma-Aldrich (St. Louis, Mo., USA), was dissolved in a physiological saline solution (NaCl 0.9%) at 0.1 mg/ml and stored at 4° C. The saline solution (NaCl 0.9%) is used as excipient. The VINC is injected daily by intraperitoneal injection (i.p.), in 2 cycles of 5 days separated by 2 days off, at a concentration of 0.1 mg/kg/day. The control animals were injected by i.p. (1 ml/kg) with the excipient using a similar protocol.
as §2
The thermal nociceptive sensitivity threshold to cold was measured in rats placed in individual Plexiglas boxes (30×30×25 cm) mounted on a raised mesh support so as to allow access to the sole of the animal's foot. […] Six measurements (3 per foot) were performed with a latency of 5 minutes between each stimulation. The average latency for withdrawal of the feet (in seconds) was calculated by averaging 6 measurements at each studied point in time. […]

CC(=O)[C@H]1CCC2C3CC[C@H]4C[C@@H](O)CC[C@]4(C)C3CC(=O)[C@@]21C (stereo partly drawn) [BR053]
Anti-nociceptive effect in healthy animals (Sprague-Dawley rats [1]): does not cause any anti-nociceptive effect | Effect on the type A GABA receptor channel or GABAa-R [2]: negative allosteric action; also recorded: Negative allosteric effect | Effect on thermal allodynia to cold (Sprague-Dawley rats [3]): eliminates the symptoms

C=CCO[C@H]1CC[C@]2(C)C3CC[C@@]4(C)C(CC[C@@H]4C(C)=O)C3CC[C@H]2C1 (stereo partly drawn) [BR297]
Anti-nociceptive effect in healthy animals (Sprague-Dawley rats [1]): does not cause any anti-nociceptive effect | Effect on the type A GABA receptor channel or GABAa-R [2]: only partially mimics the positive allosteric effect; also recorded: Partial positive allosteric effect | Effect on thermal allodynia to cold (Sprague-Dawley rats [3]): eliminates the symptoms

From patent US20190002492A1, “DERIVATIVES OF ALLOPR[…] OF EPIALLOPR[…] USES THEREOF FOR TREATING A NEUROPATHOLOGICAL CONDITION” (UNIVERSITE DE STRASBOURG, priority 2011, published 2019)
